Experimental data: US8716478B2, “Boron-containing small molecules” (Anacor Pharmaceuticals, Inc., priority 2010, dated 2014)

Key:
[1] = system: Schistosoma mansoni schistosomula; assay: Schistosoma mansoni schistosomula phenotypic screen; conditions: First Set
Description: Puerto Rican isolates of S. mansoni using Biomphalaria glabrata snails and golden hamsters as intermediate and definitive hosts, respectively, were maintained and handled in the University of California-San Francisco Sandler Center for Tropical Medicine. Patent B. glabrata snails (6-8 weeks after exposure to 5-10 infectious miracidia) were induced to shed infective larvae (cercariae) under light stimulus into the surrounding water. Cercariae were washed in rounds of ice-cold water and concentrated through and over sieves of varying pore sizes. They were then mechanically sheared (separation of heads from tails) as described in Colley D G, et al. Exp Parasitol 1974, 35:44-51, in ice-cold Incomplete Medium 169 (as described in Basch P F. J Parasitol 1981, 67:179-185, minus FBS and antibiotics) by passing 15 times through a double headed 22-gauge syringe needle connected to two 10 mL syringes. The resulting cercarial heads (schistosomula) were separated from their tails by swirling in a petri dish. Concentrated schistosomula were added to a sterile 1.5 mL centrifuge tube and allowed to settle over ice. Schistosomula were transferred to a sterile environment and washed 4 times in Incomplete Medium 169 prior to plating.
Two sets of screening were performed. In the first set, compounds were screened against schistosomula and observations were made at 24 hours, 2 days, 3 days, 4 days, and 6 days. In the second set, compounds were screened against schistosomula with observations at 24 hours, 2 days, 3 days, and 4 days and adult worms at 7 hours, 24 hours, 4 days, and 6 days.
Plates contain 200 schistosomula/well in […] complete Basch medium and were maintained at 37° C. in a 5% CO2 atmosphere. All compounds were tested in duplicate with at least two experimental replicates. Compounds and control compounds were added to the plates using the Biomek FXp using 96-well disposable tips. Final concentration of DMSO in each well was 0.5%.
A semi-quantitative and controlled nomenclature for phenotypes that can arise as a result of compound insult to both schistosomula and adults was utilized (Abdulla M H, et al., PLoS Negl Trop Dis 2009, 3:e478). Phenotypes were recorded by visual inspection and on a flexible time basis but at least at 24 h and 4 day time-points in the case of large scale screening. […] To help eliminate bias, two screen analysts scored phenotypes ‘blind’ both to knowledge of the contents of each screening plate and the phenotypes scored by his/her colleague. Upon completing their individual assessments, each analyst's ‘hit sheet’ was then compared to derive a ‘consensus hit sheet’. Discrepancies in analysts' hit sheets were re-evaluated under the microscope to eventually make a consensus hit call.
Hyper-coiled and coiled represent a verbal description of the visual phenotype as compared to the DMSO control. The + and ++ and +++ means more of the phenotype which preceded it. The − means less of the phenotype which preceded it. Results

TNF-α = assay: In vivo TNF-α release in LPS treated mice; set-up: species or system Swiss Webster mice
Description: In vivo TNF-α release was measured in Swiss Webster mice, 10/group. Animals were dosed via oral gavage with drug 1% CMC suspension. Thirty minutes later LPS, 1.5 mg/kg was administered by intraperitoneal injection. Ninety minutes later animals were sacrificed, blood was collected by exsangination and serum prepared for analysis. TNF-α concentration was assessed by ELISA, non-drug treated animals had TNF-α levels 1000-3000 pg/mL. 6-(1-Hydroxy-1,3-dihydrobenzo[c][1,2]oxaborol-5-yloxy)-2-(2-isopropoxyethoxy)nicotinonitrile (D140) and 6-(1-hydroxy-1,3-dihydrobenzo[c][1,2]oxaborol-5-yloxy)-2-(4-oxopentyloxy)nicotinonitrile (D141) are disclosed in U.S. patent application Ser. No. 12/399,015, filed Mar. 5, 2009.

[2] = system: TNF-α in peripheral blood mononuclear cells (PBMCs); assay: TNF-α inhibition in LPS-stimulated peripheral blood mononuclear cells; type: cell-based; conditions: PBMC; PBMCs, LPS 1 μg/mL for 24 h; read-out: Proinflammatory TNF-α IC50
Description: Peripheral blood mononuclear cells (PBMCs) pooled from 10-20 donors were obtained from a local blood bank, ficoll gradient purified, and stored frozen in liquid nitrogen. Cells were thawed and seeded into 96-well plates at 5×10^5 cells/well in RPMI 1640 with 10% heat-inactivated fetal calf serum (MediaTech, Inc, Hearndon, Va., USA), Test articles were evaluated at the indicated concentrations in 150 μL media containing <2% DMSO, final, with stimulant and PBMCs. Cells were stimulated with lipopolysaccharide (LPS, phenol-extract from E. coli, Sigma-Aldrich, St. Louis, Mo.) at 1 μg/mL. Stimulation was with LPS for 24 h to measure TNF-α. Cytokines in supernatants were analyzed with a FACSArray flow cytometer (BD Biosciences, San Jose, Calif., USA) using the BD Cytometric Bead Array (CBA) Flex Set (BD Biosciences). IC50 values were calculated using the four parameter logistic equation.

CN(CCO)c1nc(Oc2ccc3c(c2)COB3O)ccc1C#N [6-(1-Hydroxy-1,3-dihydro-benzo[c][1,2]oxaborol-5-yloxy)-2-[(2-hydroxy-ethyl)-methyl-amino]-nicotinonitrile]
schistosomula phenotype, 24 h [1]: O−
schistosomula phenotype, day 3 ([1]; day 3): O−
schistosomula phenotype, day 6 [1]: R O

N#Cc1ccc(Oc2ccc3c(c2)COB3O)nc1OCC(F)F [2-(2,2-Difluoro-ethoxy)-6-(1-hydroxy-1,3-dihydro-benzo[c][1,2]oxaborol-5-yloxy)-nicotinonitrile]
schistosomula phenotype, 24 h [1]: O+

N#Cc1ccc(Oc2ccc3c(c2)COB3O)nc1N1CCCC1 [6-(1-Hydroxy-1,3-dihydro-benzo[c][1,2]oxaborol-5-yloxy)-2-pyrrolidin-1-yl-nicotinonitrile]
schistosomula phenotype, 24 h [1]: O+

CCOC(=O)c1ccc(Oc2ccc3c(c2)COB3O)c(Oc2cc(C#N)ccn2)c1 [5-[4-Ethoxycarbonyl-2-(4-cyanopyridin-2-yloxy)phenoxy]-1,3-dihydro-1-hydroxy-2,1-benzoxaborole]
schistosomula phenotype, 24 h [1]: O+

CCCOc1nc(Oc2ccc3c(c2)COB3O)ccc1C#N [6-(1-Hydroxy-1,3-dihydro-benzo[c][1,2]oxaborol-5-yloxy)-2-propoxy-nicotinonitrile]
schistosomula phenotype, 24 h [1]: O+

N#Cc1ccc(Oc2ccc3c(c2)COB3O)nc1NCCO [6-(1-hydroxy-1,3-dihydro-benzo[c][1,2]oxaborol-5-yloxy)-2-(2-hydroxy-ethylamino)-nicotinonitrile]
schistosomula phenotype, 24 h [1]: O−
schistosomula phenotype, day 6 [1]: O+ R

CCOc1nc(Oc2ccc3c(c2)COB3O)ccc1C#N [2-Ethoxy-6-(1-hydroxy-1,3-dihydro-benzo[c][1,2]oxaborol-5-yloxy)-nicotinonitrile]
schistosomula phenotype, 24 h [1]: O++

CC(=O)OCCOc1nc(Oc2ccc3c(c2)COB3O)ccc1C#N [6-(1-Hydroxy-1,3-dihydro-benzo[c][1,2]oxaborol-5-yloxy)-2-(acetyloxyethoxy)-nicotinonitrile]
schistosomula phenotype, 24 h [1]: O++

CCOC(=O)c1ccc(Oc2ccc3c(c2)COB3O)nc1OCC [Ethyl 2-ethoxy-6-(1-hydroxy-1,3-dihydrobenzo[c][1,2]oxaborol-5-yloxy)nicotinate]
schistosomula phenotype, 24 h [1]: O+

COCCN(C)c1nc(Oc2ccc3c(c2)COB3O)ccc1C#N [6-(1-hydroxy-1,3-dihydro-benzo[c][1,2]oxaborol-5-yloxy)-2-[(2-methoxy-ethyl)-methyl-amino]-nicotinonitrile]
schistosomula phenotype, 24 h [1]: O+

CCOC(=O)c1cnc(Oc2ccc3c(c2)COB3O)c(Cl)c1 [Ethyl 5-chloro-6-(1-hydroxy-1,3-dihydrobenzo[c][1,2]oxaborol-5-yloxy)nicotinate]
schistosomula phenotype, 24 h [1]: O++

O=C(Nc1c(Cl)cncc1Cl)c1ccc(OC(F)F)c(OCC2CC2)c1 [Roflumilast]
% Inhibition of TNFa Blood Levels in LPS Treated Mice (TNF-α; Oral Dose 0.3 mg/kg): 0%
% Inhibition of TNFa Blood Levels in LPS Treated Mice (TNF-α; Oral Dose 1 mg/kg): 24.9%
% Inhibition of TNFa Blood Levels in LPS Treated Mice (TNF-α; Oral Dose 3 mg/kg): 52.5%
% Inhibition of TNFa Blood Levels in LPS Treated Mice (TNF-α; Oral Dose 10 mg/kg): 71.5%
% Inhibition of TNFa Blood Levels in LPS Treated Mice (TNF-α; Oral Dose 30 mg/kg): 73.5%

N#Cc1cc(Cl)c(Oc2ccc3c(c2)COB3O)nc1OC1CCOCC1 [Compound D240, 5-Chloro-6-(1-hydroxy-1,3-dihydrobenzo[c][1,2]oxaborol-5-yloxy)-2-(tetrahydro-2H-pyran-4-yloxy)nicotinonitrile]
IC50 [2]: 3.8 nM

N#Cc1ccc(Oc2ccc3c(c2)COB3O)nc1OCC(F)(F)F [6-(1-Hydroxy-1,3-dihydro-benzo[c][1,2]oxaborol-5-yloxy)-2-(2,2,2-trifluoro-ethoxy)-nicotinonitrile]
schistosomula phenotype, 24 h [1]: O (overactive)

CC(=O)NCc1ccc(Oc2ccc3c(c2)COB3O)cc1 [N-[4-(1-Hydroxy-1,3-dihydro-benzo[c][1,2]oxaborol-5-yloxy)-benzyl]-acetamide]
schistosomula phenotype, day 4 ([1]; day 4): D (dead)

COCCNc1nc(Oc2ccc3c(c2)COB3O)ccc1C#N [6-(1-Hydroxy-1,3-dihydro-benzo[c][1,2]oxaborol-5-yloxy)-2-(2-methoxy-ethylamino)-nicotinonitrile]
schistosomula phenotype, 24 h [1]: O−

N#Cc1ccc(Oc2ccc3c(c2)COB3O)c(OCC2CC2)c1 [3-(Cyclopropylmethoxy)-4-(1-hydroxy-1,3-dihydrobenzo[c][1,2]oxaborol-5-yloxy)benzonitrile]
schistosomula phenotype, 24 h [1]: O+
schistosomula phenotype, day 6 [1]: partial D

CC(C)OCCOc1nc(Oc2ccc3c(c2)C(C)OB3O)c(Cl)cc1C#N (centres unmarked) [Compound D252, 5-Chloro-6-(1-hydroxy-3-methyl-1,3-dihydrobenzo[c][1,2]oxaborol-5-yloxy)-2-(2-isopropoxyethoxy)nicotinonitrile]
IC50 [2]: 160 nM

CC(C)OC(=O)c1ccc(Oc2ccc3c(c2)COB3O)nc1 [Isopropyl 6-(1-hydroxy-1,3-dihydrobenzo[c][1,2]oxaborol-5-yloxy)nicotinate]
schistosomula phenotype, 24 h [1]: O+

COCCNc1ccc(C#N)c(Oc2ccc3c(c2)COB3O)n1 [2-(1-Hydroxy-1,3-dihydro-benzo[c][1,2]oxaborol-5-yloxy)-6-(2-methoxy-ethylamino)-nicotinonitrile]
schistosomula phenotype, 24 h [1]: O+

N#Cc1cc(Cl)c(Oc2ccc3c(c2)COB3O)nc1OCCCC1(O)CC1 [Compound D233, 5-Chloro-6-(1-hydroxy-1,3-dihydrobenzo[c][1,2]oxaborol-5-yloxy)-2-(3-(1-hydroxycyclopropyl)propoxy)nicotinonitrile]
IC50 [2]: 13 nM

CC(C)(C)Nc1nc(Oc2ccc3c(c2)COB3O)ccc1C#N [2-tert-butylamino-6-(1-hydroxy-1,3-dihydro-benzo[c][1,2]oxaborol-5-yloxy)-nicotinonitrile]
schistosomula phenotype, 24 h [1]: O (overactive)

CCCOC(=O)c1ccc(Oc2ccc3c(c2)COB3O)nc1 [n-Propyl 6-(1-hydroxy-1,3-dihydrobenzo[c][1,2]oxaborol-5-yloxy)nicotinate]
schistosomula phenotype, 24 h [1]: O+

CC(C)Oc1nc(Oc2ccc3c(c2)COB3O)ccc1C#N [6-(1-Hydroxy-1,3-dihydro-benzo[c][1,2]oxaborol-5-yloxy)-2-isopropoxy-nicotinonitrile]
schistosomula phenotype, 24 h [1]: O+

CC(C)OC(=O)c1ccc(Oc2ccc3c(c2)COB3O)c(F)c1 [5-(2-Fluoro-4-isopropyloxycarbonylphenoxy)-1-hydroxy-2,1-benzoxaborole]
schistosomula phenotype, day 6 [1]: O−, R

C[C@]12C=CC(=O)C=C1CC[C@@H]1[C@@H]2[C@@H](O)C[C@@]2(C)[C@H]1CC[C@]2(O)C(=O)CO [Prednisolone]
% Inhibition of TNFa Blood Levels in LPS Treated Mice (TNF-α; Oral Dose 0.01 mg/kg): 16%
% Inhibition of TNFa Blood Levels in LPS Treated Mice (TNF-α; Oral Dose 0.1 mg/kg): 54.3%
% Inhibition of TNFa Blood Levels in LPS Treated Mice (TNF-α; Oral Dose 3 mg/kg): 81.6%
% Inhibition of TNFa Blood Levels in LPS Treated Mice (TNF-α; Oral Dose 10 mg/kg): 84.5%
% Inhibition of TNFa Blood Levels in LPS Treated Mice (TNF-α; Oral Dose 100 mg/kg): 85.9%

CCC(=O)CCCOc1nc(Oc2ccc3c(c2)COB3O)c(Cl)cc1C#N [Compound D234, 5-chloro-6-(1-hydroxy-1,3-dihydrobenzo[c][1,2]oxaborol-5-yloxy)-2-(4-oxohexyloxy)nicotinonitrile]
IC50 [2]: 2.1 nM

COc1ccc(C2CNC(=O)C2)cc1OC1CCCC1 (centres unmarked) [Rolipram]
% Inhibition of TNFa Blood Levels in LPS Treated Mice (TNF-α; Oral Dose 10 mg/kg): 8.6%
% Inhibition of TNFa Blood Levels in LPS Treated Mice (TNF-α; Oral Dose 30 mg/kg): 62.7%
